From patent US9079863B2, “Crystalline forms for 5-amino-2,3-dihydrophthalazine-1,4-dione sodium salt, pharmaceutical preparations containing the same and method for the production of said forms” (METRIOPHARM AG, priority 2010, dated 2015)
Structures can show the parent of a compound that is named as a salt. Where two headings read alike, the source gives them in different places.

Legend:
[1] = for Disintegration temperature: 30-500° C. in synthetic air (4 N2: 1 O2), sodium salt
Procedure: (Table 5). The solid phase transformation of the dihydrate according to U.S. Pat. No. 6,483,326 B1 was measured by means of the simultaneous thermogravimetry-differential thermal analysis with a Linseis L81-077 coupled with mass spectroscopy measurement with a Netzsch STA 449 C thermobalance, with MS and FTIR coupling at 30-300° C. under helium. The disintegration temperatures of forms I-II were determined with the same device at 30-500° C. in synthetic air (4 N2: 1 O2). The data were analyzed with the factory-set software Proteus.

[2] = physchem; settings: water, thermodynamic from solid, Solubility, in water at room temperature, saturated solution
Procedure: Further, the solubility of the crystalline forms in a saturated solution was determined.

[3] = system: isolated mouse macrophages
Procedure: For this purpose, the macrophages were first treated with form I (20 or 200 μg/mL). After 1 hour the treated macrophages were stimulated with LPS (10, 100 or 1,000 ng/mL). The supernatants were collected 24 h later, and the concentration of TNF-alpha and IL-6 was measured. Not stimulated macrophages, not stimulated macrophages treated with 200 μg/mL form I and LPS-stimulated macrophages (10, 100 or 1,000 ng/mL LPS) were used as controls.

[4] = not infected mice; for Weight development/increase MW: over two days
Procedure: (§1) In a mouse model of the Gram-positive sepsis (infection with S. pyogenes) the therapeutic usability of the crystal forms I and II of the 5-amino-2,3-dihydrophthalazine-1,4-dione sodium salt was tested. The administration of active ingredient was made parenterally 6 hours after the infection occurred. A second administration of active ingredient was made 24 hours after the first application. The test was completed 48 hours after the infection. For both forms (substance groups) three different doses were used. The mice obtained 2, 20 or 200 μg each of form I or form II per animal and application.
(§2) The individual treatment groups comprised 5 animals each, and for the not infected controls two repetitions and for the infected controls and that groups that contained form II four repetitions were made, so that in total 180 animals were in the test.
It is known that the toxicity of substances in an animal test with growing-up mice or rate can influence the weight development.

[5] = system: S. pyogenes; settings: for Weight development/increase Total MW / Weight development/increase Day 1 MW: infected mice, sodium salt; for Weight development/increase Total MW: complete test time 48 h, survivors
Procedure: as §1, §2
In the sepsis model described in Example 3, the influence of crystal forms I and II of the 5-amino-2,3-dihydrophthalazine-1,4-dione sodium salt on the weight development of mice infected with S. pyogenes was tested. The development of the body weight during an acute infection may supply important predictive information.

[6] = system: S. pyogenes; settings: 48 hours after the infection
Procedure: as §1, §2
In the sepsis model described in Example 3, the influence the crystal forms II and I of the 5-amino-2,3-dihydrophthalazine-1,4-dione sodium, salt on the probability of survival of the mice infected with S. pyogenes was tested.

[7] = system: S. pyogenes; settings: for Germ load (CFU) Blood MW / Germ load (CFU) Liver MW: 48 hours after the infection, sodium salt
Procedure: as §1, §2
In the sepsis model described in Example 3, the influence of crystal forms II and I of the 5-amino-2,3-dihydrophthalazine-1,4-dione sodium salt on the germ load of the mice infected with S. pyogenes in blood and liver was tested. The test was completed 48 hours after the infection, and the germ load (CFU) existing at this time in blood and liver was determined (see Table).

[8] = healthy mice
Procedure: as §1
Blood taking occurred after 48 hours at the end of the second application day.

[9] = healthy mice, end of the second application day
Source text: When administering form I and form II to healthy mice, it was investigated, whether and which influence the application has on certain liver enzymes, in particular the transaminases GOT (AST) and GPT (ALT). Blood taking occurred at the end of the second application day.

[10] = 0.25 g in 10 mL H2O VE, stirring 500 rpm, 25° C., first minutes after addition; sodium salt
Procedure: The complete dissolution of 0.25 g form I or form II, respectively, in 10 mL H2O VE was achieved under stirring (500 rpm) at 25° C.

[11] = 200 μg/mL, not stimulated macrophages (no LPS)
[12] = dose 20 μg, LPS 10 ng/mL, supernatant 24 h
[13] = dose 20 μg, LPS 100 ng/mL, supernatant 24 h
[14] = dose 20 μg, LPS 1 mg/mL, supernatant 24 h
[15] = dose 200 μg, LPS 10 ng/mL, supernatant 24 h
[16] = dose 200 μg, LPS 100 ng/mL, supernatant 24 h
[17] = dose 200 μg, LPS 1 mg/mL, supernatant 24 h

Compound: Nc1cccc2c(=O)[nH][nH]c(=O)c12 [Form I, 5-amino-2,3-dihydrophthalazine-1,4-dione sodium salt]
- Disintegration temperature ([1]; listed as form I): 335 °C
- Disintegration temperature [1]: 335 °C ± 10 °C
- Time for which the crystalline form is stable ([1]; room temperature (25° C.) and 40° C.): at least two
- Solubility [2]: 227 mg/mL
- Immunodepressive effect ([3]; 100 ng/5 mL LPS, 200 μg/mL): most distinct
- Change of TNF-alpha values ([3]; 1 μg/mL LPS with 200 μg/mL): significant reduction
- Effect on not stimulated macrophages by TNF-alpha values ([3]; 200 μg/mL, not stimulated): immunostimulating effect
- IL-6 MW [3, 11]: 0.24 ng/mL
- TNF-alpha MW [3, 11]: 7.98 ng/mL
- Effect in the combination groups with LPS ([3]; all LPS groups): dose-dependent, immunodepressive effect
- IL-6 MW [3, 12]: 6.05 ng/mL
- TNF-alpha MW [3, 12]: 13.27 ng/mL
- IL-6 MW [3, 13]: 19.67 ng/mL
- TNF-alpha MW [3, 13]: 27.17 ng/mL
- IL-6 MW [3, 14]: 22.67 ng/mL
- TNF-alpha MW [3, 14]: 47.91 ng/mL
- IL-6 MW [3, 15]: 7.19 ng/mL
- TNF-alpha MW [3, 15]: 20.74 ng/mL
- IL-6 MW [3, 16]: 10.88 ng/mL
- TNF-alpha MW [3, 16]: 16.47 ng/mL
- IL-6 MW [3, 17]: 15.95 ng/mL
- TNF-alpha MW [3, 17]: 32.53 ng/mL
- Toxicity judged from weight development [4]: do not have any toxicity or at most a very small one
- Weight development/increase MW ([4]; 2 μg per animal and application, parenteral, sodium salt): -0.49 g
- Weight development/increase MW ([4]; 20 μg per animal and application, parenteral, sodium salt): 1.48 g
- Weight development/increase MW ([4]; 200 μg per animal and application, parenteral, sodium salt): 0.79 g
- Weight development/increase MW ([4]; all doses (total)): 0.59 g
- Weight loss compared to control groups ([5]; first 24 hours after the infection): lower weight losses
- Weight development/increase Total MW ([5]; 2 μg): -2.41 g
- Weight development/increase Day 1 MW ([5]; 2 μg): -0.64 g
- Weight development/increase Total MW ([5]; 20 μg): -1.46 g
- Weight development/increase Day 1 MW ([5]; 20 μg): -0.09 g
- Weight development/increase Total MW ([5]; 200 μg): -1.69 g
- Weight development/increase Day 1 MW ([5]; 200 μg): -0.03 g
- Weight development/increase Total MW ([5]; all doses (total)): -1.85 g
- Weight development/increase Day 1 MW ([5]; all doses (total)): -0.25 g
- Share of surviving mice ([6]; 2 μg, sodium salt): 80%
- Share of surviving mice ([6]; 20 μg): 80%
- Share of surviving mice ([6]; 200 μg, sodium salt): 80%
- Survival compared to the controls [6]: increase of the share of surviving animals
- Share of surviving mice ([6]; all doses (total)): 80%
- Germ load (CFU) Blood MW ([7]; 2 μg): 7.00 log/mL
- Germ load (CFU) Liver MW ([7]; 2 μg): 6.56 log/g
- Germ load (CFU) Blood MW ([7]; 20 μg): 6.33 log/mL
- Germ load (CFU) Liver MW ([7]; 20 μg): 6.57 log/g
- Germ load (CFU) Blood MW ([7]; 200 μg): 5.77 log/mL
- Germ load (CFU) Liver MW ([7]; 200 μg): 6.09 log/g
- Germ load (CFU) Blood MW ([7]; all doses (total)): 6.37 log/mL
- Germ load (CFU) Liver MW ([7]; all doses (total)): 6.41 log/g
- Germ count in the blood compared to the controls ([7]; highest dose): tendentious germ count reduction
- TNF-alpha MW ([8]; 2 μg, blood after 48 hours, sodium salt): 128.8 pg/mL
- TNF-alpha versus control groups and form II groups ([8]; 20 μg dose, p<0.001): significantly different
- TNF-alpha MW ([8]; 20 μg, blood after 48 hours, sodium salt): 341.8 pg/mL
- TNF-alpha MW ([8]; 200 μg, blood after 48 hours, sodium salt): 154.1 pg/mL
- TNF-alpha MW ([8]; all doses (total), blood after 48 hours, sodium salt): 208.2 pg/mL
- IL-6 increase ([8]; blood after 48 hours): neither in the substance groups nor in the control groups increases could be found
- TNF-alpha increase ([8]; compared to the other groups, sodium salt): distinct increases
- Transaminases GOT (AST) and GPT (ALT) [9]: Distinct differences between the groups could not be found
- Initial dissolution rate [10]: only retarded reaches its complete equilibrium concentration
